Measurements as given in patent US20260183429A1, “COMPOSITIONS FOR MODULATING ACETYLATED TUBULIN LEVELS AND METHODS THEREOF” (THE TRUSTEES OF COLUMBIA UNIVERSITY IN THE CITY OF NEW YORK, priority 2023, published 2026).
Marks after values point to notes of the source that are not given here.

Experiments:
Type in all cases: cell-based, mouse
MFN2 KO MEFs [1] = assay: Lipidomics of lipid classes in MFN2 KO MEFs; conditions: MFN2 KO cells; TSA 10 nM
WT MEFs = assay: MT plus end dynamics, GFP-tubulin live imaging, WT MEFs; conditions: WT + TSA
Procedure: (§1) Fibroblasts were transfected with pMSCV-puro-tagGFP-C4 α-tubulin plasmid to generate a green fluorescent protein (GFP)-tubulin stably expressing cell line. Live imaging of MT dynamics in transfected cells was performed at 37° C. and 5% CO2 for 5 min (5 s/f) with a 100×
(§2) PlanApo objective (numerical aperture 1.45) and an iXon X3 CCD camera (Andor, Belfast, United Kingdom) on a Nikon Eclipse Ti microscope controlled by Nikon's NIS-Elements software (Nikon, Tokyo, Japan). Movies were analyzed by ImageJ using a manual tracking plug-in. Dynamicity is calculated by dividing the sum of growth and shrinkage distances by MT lifetime.

[2] = test system: acetylated tubulin in Iqgap1 KO MEFs; assay: Acetylated tubulin levels in Iqgap1 KO MEFs; conditions: 10 nM TSA, 6 h or 12 h
Procedure: (§3) Cells were fixed in 4% PFA for 15 min and permeabilized with 0.1% Triton X-100 for 5 min at R.T. For the MT cytoskeleton, cells were fixed in ice cold MetOH for 10′ prior to rehydration in PBS buffer. Cells were then washed in PBS, blocked in 2% FBS and 2% BSA in PBS for 1 h, stained with primary antibodies overnight at 4° C. followed by secondary antibodies for 1 h. Mounted samples were observed using a Zeiss LSM 800 confocal microscope using a 63× objective (Plan-Apochromat, NA 1.4). Z stack (0.5 um) images were acquired. To calculate the Mitotic Index as percentage, the number of cells in mitosis were divided by the total number of cells multiplied by 100. […] ROIs were selected in both channels to calculate mean fluorescence and integrated density prior to calculating corrected total fluorescence intensity (CTCF=Integrated Density−(Area of selected cell*Mean fluorescence of background readings). For measuring MT associated MB11 intensity, an ROI was selected along individual tyrosinated MTs using ImageJ and GTP tubulin (hMB11) pixel intensity was calculated along the tyrosinated tubulin signal and corrected by subtracting out background signal fluorescence intensity.
(§4) Cells were lysed in Laemmli sample buffer and boiled at 96° C. for 5 min. […] Image acquisition was performed with an Odyssey imaging system (LI-COR Biosciences, NE) and analyzed with Odyssey software.

MFN2 KO MEFs [3] = assay: MAM-dependent phospholipid synthesis, 3H-Ser incorporation into PtdSer and PtdEtn; conditions: TSA 10 nM, 6 h, after 2 h and 4 h
Procedure: Both mitochondria and ER play key roles in the synthesis of phosphatidylserine (PtdSer), phosphatidylethanolamine (PtdEtn), and phosphatidylcholine (PtdCho). PtdSer is synthesized in the MAM; it then translocates to mitochondria, where it is converted to PtdEtn; PtdEtn then translocates back to the MAM, to generate PtdCho. To test the effect of MFN2 on phospholipid synthesis mediated by MAM, WT and MFN2 KO MEF cells were incubated for 2 h with serum-free medium to ensure removal of exogenous lipids. The medium was then replaced with MEM containing […] of 3H-serine for 2, 4 and 6 h. The cells were washed and collected in DPBS, pelleted at 2500×g for 5 min at 4° C., and resuspended in 0.5 ml water, removing a small aliquot for protein quantification. Lipid extraction was done by the Bligh and Dyer method. Briefly, three volumes of chloroform/methanol 2:1 were added to the samples and vortexed. […] The spots corresponding to the relevant phospholipids (identified using co-migrating standards) were scraped and counted in a scintillation counter (Packard Tri-Carb 2900TR). […] Therefore, to directly test the effect of MFN2 mutations on phospholipid synthesis mediated by MAM, control and MFN2 KO fibroblasts were incubated in medium containing 3H-serine and measured the incorporation of the label into newly synthesized 3H-PtdSer and 3H-PtdEtn after 2 and 4 h.

MFN2 KO MEFs [4] = assay: MT plus end dynamics, GFP-tubulin live imaging, MFN2 KO MEFs
Procedure: as §1, §2

MFN2 KO MEFs [5] = assay: Mitochondria fusion by mitoDendra photoconversion in MFN2 KO MEFs; conditions: MFN2 KO cells; TSA 10 nM, 6 h
Text: Dendra2 photoconversion and imaging utilized the protocol from Evrogen. Images were acquired with an Olympus spinning disk microscope EC-Plan-Neofluar 40X/1.3 oil. Z-stack acquisitions over-sampled each optical slice twice, and the Zen 2009 image analysis software was used for maximum z-projections. The 488 nm laser line and the 561 nm laser excited Dendra2 in the unconverted state and photo-converted state, respectively. To photo-switch Dendra2, a region was illuminated with the 405 nm line (4% laser power) for 90 bleaching iterations. The corrected total fluorescence intensity of both the channels was calculated using ImageJ and colocalization percentage was calculated.

Iqgap1 KO MEFs [6] = assay: Mitochondria dynamics in Iqgap1 KO MEFs; conditions: 10 nM TSA, 6 h, compared with TTL silencing
Procedure: (§5) Mitochondria were labeled using MitoTracker™ Red CMROX according to manufacturer protocol (ThermoFisher Scientific) and detected by epifluorescence microscope equipped with 60× objective lens (Olympus IX81) and a monochrome CCD camera (Sensicam QE, Cooke Corporation). Aspect ratio (length/width) were measured in unedited image files by using Image J/FIJI. Brightness and contrast of the images were adjusted to optimize visualization of the mitochondrial segments and to reduce background noise. After selecting an individual cell, the Analyze Particles function (pixel size 10-infinity; circularity 0.00-1.00) was used to count the number of noncontiguous, discrete particles, and describe their shape. For mitochondrial distribution and displacement velocity mitochondria were live imaged for 3 min at 2 sec/frame at 37° C. A customized Mitoplot software was used for analyzing mitochondrial distribution by defining the center of cell and drawing a line towards periphery. Manual tracking plug-in in ImageJ/FIJI was used to analyze mitochondrial displacement velocity by selecting individual mitochondria.

Iqgap1 KO MEFs [7] = assay: MT plus end dynamics, GFP-tubulin live imaging, Iqgap1 KO MEFs; conditions: Iqgap1 KO + TSA
Procedure: as §1, §2

MFN2 KO MEFs [8] = assay: Mitochondrial morphology, motility, distribution and association with MTs in MFN2 KO MEFs; conditions: MFN2 KO cells
Procedure: For immunofluorescence staining of the MT cytoskeleton, cells were fixed in ice cold MetOH for 10′ prior to rehydration in PBS buffer. For all other staining, cells were fixed in 4% PFA for 15 min and permeabilized with 0.1% Triton X-100 for 5 min at R.T. Cells were then washed in PBS, blocked in 2% FBS and 2% BSA in PBS for 1 h, stained with primary antibodies overnight at 4° C. followed by secondary antibodies for 1 h. Mounted samples were observed using a Zeiss LSM 800 confocal microscope equipped with Airyscan module, using a 63× objective (Plan-Apochromat, NA 1.4). Z stack (0.2 um) images were acquired and processed using Zen Blue 2.1 software prior to analysis by ImageJ software. For 3D reconstruction, mitochondrial networks in individual cells were quantified by analyzing the network volume using Imaris software (Bitplane, Concord, MA). For line scan analysis, a line was drawn, and intensity was measured represented as gray values. The amount of fluorescence of the colocalizing pixels in each channel (Mander's coefficient) was calculated using ImageJ. The file was opened, and channels were split. Each select file was changed to 8-bit greyscale and max projection images was generated. Colocalization was assessed by Plugin co-localization finder. To calculate number of ATAT1 foci, each image was converted into an 8-bit greyscale image and ATAT1 signal thresholded until the foci appeared isolated from the background in a binary image. Both channels were then merged into one and the number of foci localizing in the merged stack quantified. To calculate ATAT1 localization with MFN2 on mitochondria, numbers of ATAT1 and MFN2 foci were quantified on each channel individually. Both channels were then merged into one and number of foci in the merged stack analyzed and quantified on mitochondria.
as §5

[9] = test system: acetylated tubulin in MFN2 KO MEFs; assay: Acetylated tubulin levels by immunoblot and immunofluorescence in MFN2 KO MEFs; conditions: MFN2 KO cells; 10 nM TSA, 6 h and 12 h (FIGS. 2A-2D)
Procedure: as §3, §4

CC(/C=C/C(=O)NO)=C\[C@@H](C)C(=O)c1ccc(N(C)C)cc1 [TSA, trichostatin A]
changes in sphingomyelin, cholesterol, cholesteryl esters and ceramide levels (MFN2 KO MEFs [1]): rescued
% Growth (WT MEFs; Table 3): 20.04 ± 1.28^c,x %
% Pause (WT MEFs; Table 3): 63.5 ± 0.64^c,x %
% Shrinkage (WT MEFs; Table 3): 18.25 ± 1.37^c,x %
Catastrophe frequency (WT MEFs; Table 3): 0.05 ± 0.004 s⁻¹
Growth rate (WT MEFs; Table 3): 0.04 ± 0.007 μm/s
MT lifetime (WT MEFs; Table 3): 56.5 ± 3.66 s
Rescue freq. (WT MEFs; Table 3): 0.07 ± 0.006 s⁻¹
Shrinkage rate (WT MEFs; Table 3): 0.07 ± 0.008 μm/s
% Growth (WT MEFs; Table 4 (Iqgap1 series)): 23.75 ± 0.85^b,x %
% Pause (WT MEFs; Table 4 (Iqgap1 series)): 50 ± 2.48^b,x %
% Shrinkage (WT MEFs; Table 4 (Iqgap1 series)): 27.25 ± 3.19%
Catastrophe frequency (WT MEFs; Table 4 (Iqgap1 series)): 0.06 ± 0.003 s⁻¹
Growth rate (WT MEFs; Table 4 (Iqgap1 series)): 0.04 ± 0.004 μm/s
MT dynamicity (WT MEFs; Table 4 (Iqgap1 series)): 3.32 ± 0.24^a,x μm/min
MT lifetime (WT MEFs; Table 4 (Iqgap1 series)): 49.5 ± 2.32 s
Rescue freq. (WT MEFs; Table 4 (Iqgap1 series)): 0.07 ± 0.007 s⁻¹
Shrinkage rate (WT MEFs; Table 4 (Iqgap1 series)): 0.03 ± 0.004 μm/s
acetylated tubulin levels [2]: restoration of acetylated tubulin levels
MAM-dependent phospholipid synthesis (3H-Ser into 3H-PtdSer and 3H-PtdEtn) (MFN2 KO MEFs [3]): failed to normalize
% Growth (MFN2 KO MEFs [4]; MFN2 KO + TSA): 22.4 ± 0.90^c,y %
% Pause (MFN2 KO MEFs [4]; MFN2 KO + TSA): 62.13 ± 1.68^c,y %
% Shrinkage (MFN2 KO MEFs [4]; MFN2 KO + TSA): 16.05 ± 1.42^c,y %
Catastrophe frequency (MFN2 KO MEFs [4]; MFN2 KO + TSA): 0.05 ± 0.006 s⁻¹
Growth rate (MFN2 KO MEFs [4]; MFN2 KO + TSA): 0.08 ± 0.005^a,y μm/s
MT dynamicity (MFN2 KO MEFs [4]; MFN2 KO + TSA): 4.858 ± 0.46^c,y μm/min
MT lifetime (MFN2 KO MEFs [4]; MFN2 KO + TSA): 60.25 ± 1.43 ^ s
Rescue freq. (MFN2 KO MEFs [4]; MFN2 KO + TSA): 0.09 ± 0.004 s⁻¹
Shrinkage rate (MFN2 KO MEFs [4]; MFN2 KO + TSA): 0.08 ± 0.005^a,y μm/s
MT dynamics (MFN2 KO MEFs [4]; MFN2 KO cells + TSA (Table 3)): normalized
mitochondria fusion (MFN2 KO MEFs [5]): completely failed to recover
mitochondria dynamics (Iqgap1 KO MEFs [6]): rescue of mitochondria dynamics
% Growth (Iqgap1 KO MEFs [7]): 25.25 ± 1.54^b,y %
% Pause (Iqgap1 KO MEFs [7]): 51.75 ± 1.10^b,y %
% Shrinkage (Iqgap1 KO MEFs [7]): 22.5 ± 0.86^b,y %
Catastrophe frequency (Iqgap1 KO MEFs [7]): 0.06 ± 0.004 s⁻¹
Growth rate (Iqgap1 KO MEFs [7]): 0.095 ± 0.006^a,y μm/s
MT dynamicity (Iqgap1 KO MEFs [7]): 3.77 ± 0.33^b,y μm/min
MT lifetime (Iqgap1 KO MEFs [7]): 51.25 ± 1.79 s
Rescue freq. (Iqgap1 KO MEFs [7]): 0.08 ± 0.006 s⁻¹
Shrinkage rate (Iqgap1 KO MEFs [7]): 0.09 ± 0.004 μm/s
co-localization of mitochondria with MTs (MFN2 KO MEFs [8]; 10 nM TSA, 6 h (FIGS. 2E, 2F)): restored
central and peripheral mitochondrial displacement velocity (MFN2 KO MEFs [8]; TSA 10 nM, 6 h): normalized
mitochondria distribution (MFN2 KO MEFs [8]; TSA 10 nM, 6 h): normalized
mitochondria elongated morphology (MFN2 KO MEFs [8]; TSA 10 nM, 6 h): partially reestablished
acetylated tubulin levels [9]: normalized

O=C(CCCCCCC(=O)Nc1ccc([C@H]2O[C@@H](CSc3nc(-c4ccccc4)c(-c4ccccc4)o3)C[C@@H](c3ccc(CO)cc3)O2)cc1)NO [tubacin, Tubacin]
mitochondrial displacement velocity, distribution, aspect ratio and fusion compared with TSA (MFN2 KO MEFs [8]; tubacin 20 μM, 6 h (FIGS. 3F-3I)): Identical results
